Measurements: patent US20220048987A1, “METHOD OF TREATMENT TO PREVENT OR REVERSE AGE-ASSOCIATED INFLAMMATION, COGNITIVE DECLINE, AND NEURODEGENERATION” (The Board of Trustees of the Leland Stanford Junior …, priority 2020, published 2022)

Assays:
Assay type in all cases: in vivo, mouse
aged mice [1] = experiment: Chemokine and cytokine multiplex assay of plasma and hippocampus of treated mice; conditions: aged (20-22 mo) mice, 2.5 mg/kg/d by gavage, 6 weeks
Protocol: PGE2, Butaprost, PF04418948 and Iloprost were purchased from Millipore-Sigma (Burlington, Mass., USA). ONO-AE248 and ONO-AE1-329 were gifts from Ono Pharmaceuticals (Osaka, Japan). Compound 52 (Charnwood Molecular Ltd, Loughborough, UK) and PF04418948 (Millipore-Sigma, Burlington, Mass., USA) were resuspended in 40% PEG (Sigma-Aldrich) and 60% of a 30% Kolliphor HS15 solution (Sigma-Aldrich), and administered orally at 10 mg/kg/d and 2.5 mg/kg/d, respectively. U-^13C-Glucose, U-^13C-Lactate, U-^13C-Glutamine, and U-^13C-Pyruvate were purchased from Cambridge Isotopes (Tewksbury, Mass., USA). HUSH-29 plasmids containing shRNAs to human GYS1 were purchased from Origene Technologies (Rockville, Md., USA). Human monocyte derived macrophages were incubated with 1640 Media with GlutaMAX+HEPES without sodium pyruvate (ThermoFisher, catolog No. 72400146). […]
Hippocampal lysates or mouse plasma were stored at −80° C. and cytokine analysis was carried out at the Human Immune Monitoring Core (Stanford University) or Eve Technologies (Calgary, Alberta, Canada) using Luminex mouse 39-plex kits and Human 71-plex kits. Plates were read using a Luminex LabMap200 instrument or a MSD Chemiluminescence instrument with a lower bound of 100 beads per sample per measured cytokine. […] Mean fluorescence intensity (MFI) was averaged over duplicate wells for each cytokine per sample on each plate. […]

[2] = Measurement of PF04418948 in plasma and brain (LC/MS/MS); conditions: aged (20-22 mo) mice, 2.5 mg/kg/d, 6 weeks, perfused brain
Protocol: Presence of PF04418948 was measured in aged (20-22 mo) mice treated with PF04418948 2.5 mg/kg/d for 6 weeks in plasma and perfused brain by LC/MS/MS at Quintara Discovery (Hayward, Calif., USA). In brief, brain samples were first homogenized in 2 volumes of ice-cold water, then further 2 fold diluted in blank plasma. An aliquot of 20 μL of each plasma sample or plasma diluted tissue homogenate was treated with 100 μL of acetonitrile containing internal standard (Terfenadine). The mixture was vortexed on a shaker for 15 minutes and subsequently centrifuged at 4000 rpm for 15 minutes. An aliquot of 70 μL of the extract was transferred to an injection plate and reconstituted in 70 μL of water for LC/MS/MS injection. Calibration standards and quality control samples were prepared by spiking the testing compound into blank plasma followed by processing with the samples.

aged mice [3] = experiment: Spatial memory: Novel Object Location and Barnes Maze tasks; conditions: aged (20-22 mo) mice, 2.5 mg/kg/d, 6 weeks
Protocol: The Novel Object Location protocol was adopted from Wimmer et al. with minor modifications. Mice interacted with the chamber (a 16 in×16 in×15 in white box made from PVC) over the course of 2 days involving 1 habituation period, 3 training sessions, and 1 testing session. On the day of training (day 1) mice were placed in the middle of an empty chamber and given 5 minutes to explore the chamber. Mice were then placed in an independent holding cage for an inter-training interval (ITI) of 3 minutes. The objects used were a plastic bottle and seasoning shaker of similar size (3 in H×1 in W×1 in L). After the habituation session, the mice then underwent three 10-minute training sessions each with a 3 min ITI in between sessions. […] Animals were recorded a JVC Everio HD camcorder GZE200 and analyzed with Kinovea video tracking software. Exploration of the objects was defined as the amount of time mice were oriented toward an object with its nose within 1 cm of it, and was scored by an experimenter blind to experimental group. […]
After testing each mouse, the maze was cleaned with 70% ethanol and rotated clockwise after every mouse to avoid intra-maze odor or visual cues. All sessions were recorded using a JVC Everio HD camcorder GZ-E200 and analyzed with Kinovea video tracking software. […]

- brain level (whole brain lysates) [2]: not detected
Structure (SMILES): COc1ccc2cc(OCC3(C(=O)O)CN(C(=O)c4ccc(F)cc4)C3)ccc2c1 [PF-04418948]
- pro-inflammatory factors in blood and hippocampus (aged mice [1]): reduced levels of pro-inflammatory factors not only in blood but also in hippocampus
- hippocampal memory function (aged mice [3]): restored hippocampal memory function as well as LTP to youthful levels
